Data on two compounds can be found in patent US20250230151A1, “COMPOUNDS FOR CANCERS DRIVEN BY BRAF MUTATION” (THE BOARD OF TRUSTEES OF THE UNIVERSITY OF ILLINOIS, priority 2021, published 2025).

Data set [1] has as its system V600EBRAF melanoma cell lines. Kind of data set: Cell viability, panel of V600E BRAF melanoma cell lines. It counts as cell-based. To be noted: range over the panel; read-out: IC50 values against a panel of V600EBRAF melanoma cell lines. As to the method: Cell Culture and reagents. All cell lines were grown in a 37° C., 5% CO2, humidified environment, in media containing 1% penicillin/streptomycin. Cell culture conditions are as follows: MDCK cells transfected with MDR1 (or ABCB1) were obtained from the Netherlands Cancer Institute (Amsterdam, The Netherlands) and maintained in DMEM with 10% fetal bovine serum (FBS, Gemini). Traditional cell lines A375, CHL-1, B16F10, and U118MG were grown in DMEM with 10% FBS, SK-MEL-28, U87 and T98G in EMEM with 10% FBS, AM-38 in EMEM with 20% HI-FBS (Gibco), HT29 in McCoy's 5A with 10% FBS, HCT116 in RPMI with 10% FBS. Compounds were dissolved in DMSO (1% final concentration, Sigma-Aldrich) for cell culture studies.
Cell viability assays. Cells were harvested, seeded in a 96-well plate and allowed to adhere overnight. Compound was added to each well in DMSO (1% final concentration). Cells were incubated for 72 hours before viability was assessed by the Alamar Blue Assay. Raptinal ([…]) was used as a dead control.

The nature of data set [2]: Pharmacokinetics in CD-1 mice, serum by LC-MS/MS. It counts as in vivo, mouse.
The target in data set [3] is T1, P-gp (Homo sapiens, UniProt P08183).
T1 construct: host or cells: MDCK (MDR1-MDCK)
T1 sequence (P08183 whole entry): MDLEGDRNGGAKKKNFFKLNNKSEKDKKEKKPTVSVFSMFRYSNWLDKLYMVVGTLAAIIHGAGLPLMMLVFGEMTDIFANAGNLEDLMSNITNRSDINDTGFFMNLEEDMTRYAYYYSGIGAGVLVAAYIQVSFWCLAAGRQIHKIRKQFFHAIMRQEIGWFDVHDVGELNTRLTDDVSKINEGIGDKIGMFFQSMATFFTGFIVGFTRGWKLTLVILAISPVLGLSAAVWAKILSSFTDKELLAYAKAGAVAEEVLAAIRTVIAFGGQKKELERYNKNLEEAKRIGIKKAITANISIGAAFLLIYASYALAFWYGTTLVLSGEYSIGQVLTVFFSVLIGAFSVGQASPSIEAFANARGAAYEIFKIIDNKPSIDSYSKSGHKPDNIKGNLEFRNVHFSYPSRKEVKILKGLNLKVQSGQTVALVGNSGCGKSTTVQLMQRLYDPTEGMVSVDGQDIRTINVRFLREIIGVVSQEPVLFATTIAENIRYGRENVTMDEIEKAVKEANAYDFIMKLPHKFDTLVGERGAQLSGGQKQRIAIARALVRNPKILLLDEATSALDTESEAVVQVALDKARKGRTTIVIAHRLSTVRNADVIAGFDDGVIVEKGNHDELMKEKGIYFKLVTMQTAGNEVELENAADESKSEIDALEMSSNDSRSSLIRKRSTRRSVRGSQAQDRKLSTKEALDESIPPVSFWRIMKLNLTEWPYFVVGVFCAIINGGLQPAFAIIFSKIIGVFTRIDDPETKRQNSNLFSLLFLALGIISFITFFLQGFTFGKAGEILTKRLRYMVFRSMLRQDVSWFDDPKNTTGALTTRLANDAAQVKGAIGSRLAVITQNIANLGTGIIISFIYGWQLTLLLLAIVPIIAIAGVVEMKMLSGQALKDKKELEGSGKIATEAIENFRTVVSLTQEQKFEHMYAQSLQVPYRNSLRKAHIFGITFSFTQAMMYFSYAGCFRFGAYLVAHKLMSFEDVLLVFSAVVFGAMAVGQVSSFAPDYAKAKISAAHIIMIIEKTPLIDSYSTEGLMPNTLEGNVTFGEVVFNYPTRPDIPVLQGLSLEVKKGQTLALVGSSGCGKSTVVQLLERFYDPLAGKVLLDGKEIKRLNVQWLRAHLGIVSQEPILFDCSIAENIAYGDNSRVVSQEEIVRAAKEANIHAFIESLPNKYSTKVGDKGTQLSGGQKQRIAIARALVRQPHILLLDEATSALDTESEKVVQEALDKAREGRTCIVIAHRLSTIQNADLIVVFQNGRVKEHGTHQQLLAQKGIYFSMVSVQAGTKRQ
To be noted: background statement on dabrafenib; cited from earlier work.

The subject of data set [4] is melanoma brain metastatic lesions. To be noted: combined with trametinib, clinical trials; cited from earlier work.
Where [5] appears, read: 20 mg/kg IP, CD-1 mice, one-compartment model, listed as 261.
Setting [6] is: 20 mg/kg IP, CD-1 mice, one-compartment model, listed as everafenib.
The mark [7] stands for this setting: CD-1, mouse, serum, intraperitoneal, 20 mg/kg IP, read-out: [Drug] serum concentration.
Setting [8] is: CD-1, mouse, serum, 25 mg/kg IV, read-out: [Drug] serum concentration.

Read-outs that look alike come from different tables or passages of the source.

By IC50 is commonly meant the concentration that gives 50% inhibition. In general, AUC refers to concentration integrated over time. Broadly, the Cmax is the maximum level reached in the sampled fluid or tissue. Usually half-life stands for the time in which the quantity being followed falls by half. Regarding `CCCS(=O)(=O)Nc1cc(Cl)cc(-c2nc(C(C)(C)C)sc2-c2ccnc(N)n2)c1F` [6-261, N-(3-(5-(2-aminopyrimidin-4-yl)-2-(tert-butyl)thiazol-4-yl)-5-chloro-2-fluorophenyl)propane-1-sulfonamide], the concentration for half-maximal inhibition (IC50) in data set [1] fell in the range of 2 to 10 nM. Besides, in data set [2] (setting [5]), the exposure (AUC) came to 503964.63 ng·min/mL, the CL was 39.69 mL/min/kg, the Cmax amounted to 9364.7721 ng/mL and the T1/2 is listed as 37.3 min. The same compound displayed a Vss in data set [2] (setting [5]) of 2.6929321 L/kg. In data set [2] (setting [6]), the CL was 39.7 mL/min/kg and the Vss was 2.6929 L/kg. The concentration at 0 min in data set [2] (CD-1, mouse, serum, intraperitoneal, 20 mg/kg IP, 0 min, read-out: [Drug] serum concentration) worked out at 0 nM. Also, in data set [2] (setting [7]), the concentration at 15 min amounted to 12.9 ± 0.557 µM and the concentration at 60 min came to 5.59 ± 0.167 µM. Besides, the concentration at 30 min in data set [2] (CD-1, mouse, serum, intraperitoneal, 20 mg/kg IP, 30 min, read-out: [Drug] serum concentration) was found to be 9.46 ± 0.621 µM. The concentration at 45 min in data set [2] (CD-1, mouse, serum, intraperitoneal, 20 mg/kg IP, 45 min, read-out: [Drug] serum concentration) is 6.7 ± 0.122 µM. In addition, the concentration at 120 min in data set [2] (CD-1, mouse, serum, intraperitoneal, 20 mg/kg IP, 120 min, read-out: [Drug] serum concentration) was determined as 2.55 ± 0.194 µM. Besides, the concentration at 240 min in data set [2] (CD-1, mouse, serum, intraperitoneal, 20 mg/kg IP, 240 min, read-out: [Drug] serum concentration) stood at 0.581 ± 0.118 µM. The concentration at 480 min in data set [2] (CD-1, mouse, serum, intraperitoneal, 20 mg/kg IP, 480 min, read-out: [Drug] serum concentration) worked out at 0.014 ± 0.00207 µM. Moreover, in data set [2] (CD-1, mouse, serum, intraperitoneal, 20 mg/kg IP, 960 min, read-out: [Drug] serum concentration), the concentration at 960 min came out at 0 nM. Also, the half-life in data set [2] (CD-1, mouse, serum, ip, 20 mg/kg, 20 mg/kg IP, CD-1 mice, one-compartment model) was 37.3 min. Also, the AUC in data set [2] (CD-1, mouse, serum, ip, 20 mg/kg, 20 mg/kg IP, CD-1 mice, one-compartment model, read-out: AUC (converted)) is 504000 ng·min/mL. In data set [2] (CD-1, mouse, serum, ip, 20 mg/kg, 20 mg/kg IP, CD-1 mice, one-compartment model, read-out: Cmax), the highest concentration (Cmax) is 9360 ng/mL. In data set [2] (setting [8]), the concentration at 15 min amounted to 16.4 ± 0.719 µM and the concentration at 60 min turned out to be 6.56 ± 0.29 µM.

Consider `CC(C)(C)c1nc(-c2cccc(NS(=O)(=O)c3c(F)cccc3F)c2F)c(-c2ccnc(N)n2)s1` [Dabrafenib, reference compound], for which the “efflux ratio (recognized by P-gp)” value in data set [3] is on record as 11.4-18.3. For the same compound, the “duration of intracranial response” value in data set [4] was 6.5 months.
